Assays:
Saccharomycetes D4 = assay: Mitotic conversion test; type: cell-based
[1] = tested on: post-traumatic arthralgia; assay: Clinical comparison in post-traumatic arthralgia; type: in vivo, man
From the text: The same can be said in the treatment of post-traumatic arthralgia.

post-operative pain = assay: Clinical trials in post-operative pain; type: in vivo, man
Experimental: As reported in Table 14, the analgesic properties of amtolmetin guacyl were tested in postoperative pain with good results. […] The peak effect is obtained only after 2 hours, and it is maintained for 6 hours.

patients = assay: Clinical trials: tolerability, adverse events and suspensions of treatment; type: in vivo, man; details: in vivo
From the text: Interest in the amtolmetin guacyl molecule arose following a thorough analysis of the results of 31 comparative and 6 non-comparative clinical trials involving 1596 patients. […] Turthermore the physician, being aware of administering an NSAID, was expecting adverse events and could not be expected to be an impartial observer. The few cases of gastro-intestinal phenomena reported with amtolmetin guacyl were transitory and in no event accompanied by the presence of occult blood in the stools. Moreover, even in the presence of a reported side-effect it was almost never necessary to suspend treatment (0.4% of suspensions).
Following are summarized the results obtained on a total of 1596 patients in 37 clinical trials.
Confirmation of the above described advantages is the very low incidence of treatment suspension for adverse events found in clinics (Table 17), which is not the case for most of NSAIDs known in the art (Table 18).

gastric acid secretion = assay: Gastric acid secretion in the rat; type: in vivo
From the text: (§1) On the basis of the above series of observations, we decided to study the pharmacological behaviour of a number of widely used NSAIDs (including amtolmetin guacyl) towards the gastric mucosa in the rat, as previously described. […] The first hypothesis was that we were deling with an anti-H2 drug, given the fact that its potency could be compared with that of cimetidine.
The introduction of a guaiacol moiety into the amtolmetin guacyl molecule led to the insertion of a vanilloid radical which confers gastroprotective properties to the molecule.

[2] = tested on: gastric bicarbonate secretion; assay: Gastric bicarbonate secretion after stimulation with histamine; type: in vivo, rat; details: fig. 6
rat = assay: Chronic oral administration for 52 weeks, gastric damage; type: in vivo
COX1 (cyclooxygenase 1) = biological target: T1, COX1 (cyclooxygenase 1) (Rattus norvegicus, UniProt Q63921); assay: Pharmacological studies in rats: cyclooxygenase inhibition; details: in vivo
T1 construct: the pharmacological studies conducted in rats; from tissue; host or cells: rat (in vivo; tissue not given)
T1 sequence (Q63921 27-602): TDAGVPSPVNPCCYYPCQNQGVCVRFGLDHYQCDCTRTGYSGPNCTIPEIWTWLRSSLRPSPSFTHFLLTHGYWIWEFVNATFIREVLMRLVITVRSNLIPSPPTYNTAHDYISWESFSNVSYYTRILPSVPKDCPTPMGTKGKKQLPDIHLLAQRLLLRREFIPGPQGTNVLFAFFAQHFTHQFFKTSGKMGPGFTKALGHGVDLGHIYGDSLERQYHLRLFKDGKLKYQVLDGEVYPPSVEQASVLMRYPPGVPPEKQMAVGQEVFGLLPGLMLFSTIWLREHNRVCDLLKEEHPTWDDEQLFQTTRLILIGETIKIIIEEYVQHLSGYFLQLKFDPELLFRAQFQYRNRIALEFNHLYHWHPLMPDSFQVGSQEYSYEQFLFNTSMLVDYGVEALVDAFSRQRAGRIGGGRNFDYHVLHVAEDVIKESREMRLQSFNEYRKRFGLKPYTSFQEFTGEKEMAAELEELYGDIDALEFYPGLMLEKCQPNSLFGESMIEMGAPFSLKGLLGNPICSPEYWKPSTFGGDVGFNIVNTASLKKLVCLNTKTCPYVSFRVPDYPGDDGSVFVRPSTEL

Cynomolgous monkey = assay: Chronic oral administration for 52 weeks, gastric damage; type: in vivo
H2 receptors = biological target: T2, H2 receptors (Cavia porcellus, UniProt P47747); assay: Isolated atrium, histamine stimulation; details: guinea-pig atrium, fig. 5
T2 construct: using an organ in which only H2 receptors were present (guinea-pig atrium); from tissue; host or cells: guinea-pig atrium
T2 sequence (P47747 whole entry): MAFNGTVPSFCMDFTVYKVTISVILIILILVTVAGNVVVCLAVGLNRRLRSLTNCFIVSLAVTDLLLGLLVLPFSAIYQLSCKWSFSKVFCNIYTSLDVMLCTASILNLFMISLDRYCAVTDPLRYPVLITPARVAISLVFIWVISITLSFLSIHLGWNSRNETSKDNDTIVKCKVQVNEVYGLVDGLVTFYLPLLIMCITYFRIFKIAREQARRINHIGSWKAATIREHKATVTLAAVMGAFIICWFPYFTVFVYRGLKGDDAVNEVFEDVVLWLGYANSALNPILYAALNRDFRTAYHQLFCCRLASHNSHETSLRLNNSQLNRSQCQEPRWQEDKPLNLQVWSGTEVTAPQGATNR
From the text: as §1

Anaesthetized Rat = assay: Drug safety trials: blood pressure and cardiovascular system; details: in vivo
From the text: From a toxicological viewpoint the drug offers an excellent torability profile.

platelet aggregation = assay: Platelet aggregation
From the text: For all of these reasons the drug was expected to induce gastric damage and inhibit platelet aggregation.

gastric mucosa = assay: Gastroprotective action in vivo with an H1 receptor inhibitor; design: species or system rat; details: in the presence of an inhibitor of H1 receptors, fig. 17 and 18
From the text: In the in vivo experimentation, evaluated as effect of the product both on gastric mucosal secretion and on the healthy condition of the mucosa itself, it was noted that in the presence of an inhibitor of H1 receptors (therefore a typical antihistamine agent), the gastroprotective effect of amtolmetin guacyl drops out. […] All of this constitutes a precise forewarning of the association of amtolmetin guacyl with H1 receptor inhibiting substances on pain of loss of the gastroprotective properties of the former (fig. 17 and 18).

rabbit = assay: Fertility, embryotoxicity and teratogenicity studies; type: in vivo
Saccharomycetes pombe Pl = type: cell-based
gastric PGE2 = assay: Effect on gastric PGE2 in the rat; type: in vivo
From the text: Moreover, as with all the NSAIDs currently aveilable, it inhibits gastric PGE2 in the rat, albeit to a lesser degree than ASA (Table 7).

[3] = tested on: extra-articular rheumatism; assay: Clinical trials in extra-articular rheumatism; type: in vivo, man; details: 90 patients, 14 days; versus diclofenac, naproxen, piperazine propionate
From the text: In extra-articular rheumatism amtolmetin guacyl was compared with diclofenac, naproxen and piperazine propionate.

[4] = tested on: human lymphocites cultivated in vitro; assay: Chromosome aberrations in lymphocytes in vitro; type: cell-based

In the case of `COc1ccccc1OC(=O)CNC(=O)Cc1ccc(C(=O)c2ccc(C)cc2)n1C` [MED 15, 2-methoxyphenyl-1-methyl-5p-methylbenzoylpyrrol-2-acetamido acetate], the mitotic conversion (Saccharomycetes D4) was “absence of amtolmetin guacyl-related damage”, the duration of effect [1] was 6 h and the latency time [1] was 20 min. The “time to reach peak effect” value [1] was 1 h, the “time at which the effect is already evaluable” value (post-operative pain; following administration) was 30 ' and the antalgic effect (post-operative pain; post-operative pain) was “statistically significant”. For the same compound, the “time the effect is maintained” value (post-operative pain; post-operative pain) was 6 h, the “time to peak effect” value (post-operative pain; post-operative pain) was 2 h and the Treatment suspended (patients; human) was 4. For the same compound, the “incidence of adverse events involving the stomach” value (patients; human) was ~5%, the “reports of gastric discomfort” value (patients; human) was 4% and the Treatment suspended (patients; human, 10 days) was 3. For the same compound, the Treatment suspended % (patients; human, 10 days) was 1,6%, the Treatment suspended (patients; human, 21 days) was 0 and the Treatment suspended (patients; human, 30 days) was 1. The Treatment suspended % (patients; human, 30 days) was 0,7%, the Treatment suspended (patients; human, 60 days) was 0 and the Treatment suspended (patients; human, 90 days) was 0. The Treatment suspended (patients; human, 120 days) was 0, the Treatment suspended (patients; human, 150 days) was 0 and the Treatment suspended (patients; human, 180 days) was 0. The gastric lesions (patients) was “not to induce gastric lesions”, the “variations of the routine biological parameters” value (patients) was “no significant variations” and the basal acid secretion (gastric acid secretion; basal, unstimulated) was “fails to modify”. For the same compound, the “effect on gastric acid” value (gastric acid secretion; rat, in vivo) was “reduction of gastric acid”, the “activity on gastric secretion after CGRP antagonist” value (gastric acid secretion; with CGRP8-37, peptone-stimulated, fig. 14) was “blockage” and the “effect on gastric acid secretion after capsaicin receptor antagonist” value (gastric acid secretion; with capsazepine, peptone-stimulated, fig. 16) was “inhibited by the capsazepine antagonist”. The “increase in bicarbonate production” value [2] was 67%, the gastric damage (rat) was “absence of gastric damage” and the “inhibition of COX1” value (COX1 (cyclooxygenase 1)) was “inhibition”. For the same compound, the gastric damage (Cynomolgous monkey) was “absence of gastric damage”, the “interference with the H2 receptors” value (H2 receptors) was “did not interfere with the H2 receptors” and the “effects on blood pressure and on the cardiovascular system” value (Anaesthetized Rat) was “absence of effects”. For the same compound, the platelet antiaggregating properties (platelet aggregation) was “significant platelet antiaggregating properties”, the gastroprotective effect (gastric mucosa) was “drops out” and the “fertility, embriotoxicity and teratogenicity” value (rabbit) was “safety”. The forward mutation (Saccharomycetes pombe Pl) was “absence of amtolmetin guacyl-related damage”, the “%inhibition” value (gastric PGE2; gastric PGE2 versus controls) was 69.9% and the “PGE2 (ngtg^Δ tissue)±S.E.” value (gastric PGE2; gastric tissue, rat, controls 108.7±23.9) was 32.7±8.5 nanograms for gram of tissue. The “Evaluation of antiphlogistic activity” value [3] was “In this indication no significant differences were noted between amtolmetin guacyl and the reference compounds” and the chromosomic aberrations [4] was “absence of amtolmetin guacyl-related damage”.

From patent EP1024807B1, “USE OF THE COMPOUND 2-METHOXYPHENYL-1-METHYL-5P-METHYLBENZOYL-PYRROL-2-ACETAMIDO ACETATE FOR THE PRODUCTION OF AN ANTI-INFLAMMATORY DRUG WITH PREVENTION OF GASTRIC HYPERSECRETION AND RENAL IMPAIRMENT” (MEDOSAN Ricerca S.r.l., priority 1997, dated 1999)
